Assay [1] concerns the target mutant G2019S LRRK2 (Homo sapiens, UniProt Q5S007, G2019S). The assay can be described thus: LRRK2 Assay, Format 2 (Lantha Screen), G2019S mutant. Also on record: purchased Invitrogen PV4881. The assay is classed as biochemical.
Assay [2] has as its target T1, GST-tagged truncated LRRK2 (Homo sapiens, UniProt Q5S007).
T1 construct: GST-tagged truncated LRRK2 from Invitrogen (Cat # PV4874); GST; purchased Invitrogen PV4874
The assay can be described thus: LRRK2 Assay, Format 2 (Lantha Screen), WT. The class given is biochemical.

Where [3] appears, read: geometric mean of 2-4 determinations unless otherwise indicated (a: >=5; b: single determination), read-out: LRRK2, Format 2 G2019S IC50.
Where [4] appears, read: geometric mean of 2-4 determinations unless otherwise indicated (a: >=5; b: single determination).

Counter-ions that a name gives are not always drawn. Like-named read-outs stand apart in the source and are kept apart here.

Results on 26 compounds are retold here after US10039753B2, “Imidazo[4,5-c]quinoline and imidazo[4,5-c][1,5]naphthyridine derivatives as LRRK2 inhibitors” (Pfizer Inc., priority 2015, dated 2018).

Sequence of mutant G2019S LRRK2 (Q5S007 970-2527 G2019S limits assumed): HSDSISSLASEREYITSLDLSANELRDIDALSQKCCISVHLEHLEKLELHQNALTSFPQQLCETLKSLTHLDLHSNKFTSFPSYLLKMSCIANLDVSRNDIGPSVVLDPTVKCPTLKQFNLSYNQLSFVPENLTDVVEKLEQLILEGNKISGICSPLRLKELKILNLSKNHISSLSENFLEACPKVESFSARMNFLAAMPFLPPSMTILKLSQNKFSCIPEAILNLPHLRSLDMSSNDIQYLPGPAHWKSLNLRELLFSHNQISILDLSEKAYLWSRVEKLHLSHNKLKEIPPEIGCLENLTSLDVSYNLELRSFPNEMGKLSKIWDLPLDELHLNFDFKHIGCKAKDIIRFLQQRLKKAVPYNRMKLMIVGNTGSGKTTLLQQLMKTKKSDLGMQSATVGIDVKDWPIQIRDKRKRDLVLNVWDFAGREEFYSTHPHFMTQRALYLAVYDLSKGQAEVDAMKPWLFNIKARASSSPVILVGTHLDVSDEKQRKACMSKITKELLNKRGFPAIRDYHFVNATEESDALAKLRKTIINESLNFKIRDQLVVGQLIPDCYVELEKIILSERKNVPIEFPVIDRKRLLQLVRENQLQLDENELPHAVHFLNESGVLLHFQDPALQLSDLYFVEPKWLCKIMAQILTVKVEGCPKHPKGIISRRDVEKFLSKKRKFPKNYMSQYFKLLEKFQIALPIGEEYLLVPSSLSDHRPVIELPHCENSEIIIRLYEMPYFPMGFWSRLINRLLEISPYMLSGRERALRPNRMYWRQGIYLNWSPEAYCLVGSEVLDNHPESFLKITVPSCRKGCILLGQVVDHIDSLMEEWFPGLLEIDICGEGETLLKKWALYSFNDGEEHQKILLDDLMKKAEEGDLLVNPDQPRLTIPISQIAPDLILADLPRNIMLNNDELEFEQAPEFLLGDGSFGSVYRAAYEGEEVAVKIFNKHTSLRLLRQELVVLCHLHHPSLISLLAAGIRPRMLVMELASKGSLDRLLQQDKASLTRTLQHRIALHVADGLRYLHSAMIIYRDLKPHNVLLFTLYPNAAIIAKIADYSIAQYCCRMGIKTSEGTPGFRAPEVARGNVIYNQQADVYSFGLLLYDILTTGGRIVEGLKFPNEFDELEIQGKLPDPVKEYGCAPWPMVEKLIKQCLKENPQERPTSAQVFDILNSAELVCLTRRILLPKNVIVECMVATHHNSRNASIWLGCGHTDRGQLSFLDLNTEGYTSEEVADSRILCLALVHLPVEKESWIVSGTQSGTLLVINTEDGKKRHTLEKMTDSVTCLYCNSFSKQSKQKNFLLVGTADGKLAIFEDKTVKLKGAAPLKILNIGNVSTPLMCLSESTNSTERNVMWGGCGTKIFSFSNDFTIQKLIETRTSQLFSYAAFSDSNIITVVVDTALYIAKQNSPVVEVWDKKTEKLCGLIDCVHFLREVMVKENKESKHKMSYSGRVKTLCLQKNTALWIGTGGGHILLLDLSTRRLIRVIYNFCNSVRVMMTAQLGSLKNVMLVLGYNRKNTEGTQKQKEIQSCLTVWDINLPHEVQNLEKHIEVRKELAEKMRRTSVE
T1 sequence (Q5S007 970-2527 limits assumed): as the sequence (Q5S007 970-2527 G2019S limits assumed) above, with S1050G counted along it

On to `C[C@@H]1C[C@H](n2c(Cn3cc(C(F)(F)F)nn3)nc3cnc4ccc(C#N)cc4c32)CCO1` [Example 175, 1-[(2R,4R)-2-methyltetrahydro-2H-pyran-4-yl]-2-{[4-(trifluoromethyl)-1H-1,2,3-triazol-1-yl]methyl}-1H-imidazo[4,5-c]quinoline-8-carbonitrile], for which the values for the IC50 in assay [1] (setting [3]) and in assay [2] (setting [4]) were 12.2 nM and 13.4 nM, respectively.
On to `C[C@@H]1C[C@H](n2c(Cn3cnnn3)nc3cnc4ccc(Cl)cc4c32)CCO1` [Example 129, 8-chloro-1-[(2R,4R)-2-methyltetrahydro-2H-pyran-4-yl]-2-(1H-tetrazol-1-ylmethyl)-1H-imidazo[4,5-c]quinoline, formate salt], for which the IC50 was 4.17 nM in assay [1] (setting [3]) and 3.64 nM in assay [2] (setting [4]).
Taken in the same sequence, the figures for `Cc1cc(Cc2nc3cnc4ccc(C#N)cc4c3n2[C@H]2CC[C@@H](F)C2)no1` (single isomer, unassigned) [Example C66] were 42.2 nM and 29.8 nM.
As to `C[C@@H]1C[C@H](n2c(Cc3cn4ncsc4n3)nc3cnc4ccc(C#N)cc4c32)CCO1` [Example 149, 2-(imidazo[2,1-b][1,3,4]thiadiazol-6-ylmethyl)-1-[(2R,4R)-2-methyltetrahydro-2H-pyran-4-yl]-1H-imidazo[4,5-c]quinoline-8-carbonitrile], the values for the half-inhibitory concentration (IC50) in assay [1] (setting [3]) and in assay [2] (setting [4]) were 2.12 nM and 2.04 nM, respectively.
In the same order, the values of `Cc1cc(Cc2nc3cnc4ccc(C#N)cc4c3n2C2CCC2)no1` [Example 216, 1-cyclobutyl-2-[(5-methyl-1,2-oxazol-3-yl)methyl]-1H-imidazo[4,5-c]quinoline-8-carbonitrile, formate salt] are 38.6 nM and 26.6 nM.
`C[C@@H]1C[C@H](n2c(Cc3ccc(C(F)(F)F)cn3)nc3cnc4ccc(C#N)cc4c32)CCO1` [Example 208, 1-[(2R,4R)-2-methyltetrahydro-2H-pyran-4-yl]-2-{[5-(trifluoromethyl)pyridin-2-yl]methyl}-1H-imidazo[4,5-c]quinoline-8-carbonitrile]: the IC50 in assay [1] (setting [3]) is 14.3 nM; in assay [2] (setting [4]), 15 nM.
On to `Cc1ccc(Cc2nc3cnc4ccc(Cl)cc4c3n2[C@@H]2CCO[C@H](C)C2)nc1` [Example 100, 8-Chloro-2-[(5-methylpyridin-2-yl)methyl]-1-[(2R,4R)-2-methyltetrahydro-2H-pyran-4-yl]-1H-imidazo[4,5-c]quinoline], for which the values for the IC50 in assay [1] (setting [3]) and in assay [2] (setting [4]) were 5.01 nM and 4.74 nM, respectively.
Taken in the same sequence, the figures for `Cc1nc(Cc2nc3cnc4ccc(C#N)cc4c3n2[C@@H]2CCO[C@H](C)C2)cs1` [Example 234, 1-[(2R,4R)-2-methyltetrahydro-2H-pyran-4-yl]-2-[(2-methyl-1,3-thiazol-4-yl)methyl]-1H-imidazo[4,5-c]quinoline-8-carbonitrile, formate salt] were 9.5 nM and 10.7 nM.
Taken in the same sequence, the figures for `C[C@@H]1C[C@H](n2c(Cn3nccn3)nc3cnc4ccc(Cl)cc4c32)CCO1` [Example 161, 8-chloro-1-[(2R,4R)-2-methyltetrahydro-2H-pyran-4-yl]-2-(2H-1,2,3-triazol-2-ylmethyl)-1H-imidazo[4,5-c]quinoline, formate salt] were 6.94 nM and 6.39 nM.
Consider `C[C@@H]1C[C@H](n2c(Cn3cncn3)nc3cnc4ccc(C#N)cc4c32)CCO1` [Example 120, 1-[(2R,4R)-2-methyltetrahydro-2H-pyran-4-yl]-2-(1H-1,2,4-triazol-1-ylmethyl)-1H-imidazo[4,5-c]quinoline-8-carbonitrile, formate salt], for which the IC50 in assay [1] (setting [3]) stood at 5.07 nM; in assay [2] (setting [4]), 5.74 nM.
Taken in the same sequence, the figures for `C[C@@H]1C[C@H](n2c(Cc3csnn3)nc3cnc4ccc(C#N)cc4c32)CCO1` [Example 195, 1-[(2R,4R)-2-methyltetrahydro-2H-pyran-4-yl]-2-(1,2,3-thiadiazol-4-ylmethyl)-1H-imidazo[4,5-c]quinoline-8-carbonitrile] were 2.28 nM and 3.46 nM.
As for `COCc1cn(Cc2nc3cnc4ccc(C#N)cc4c3n2C2CCC(F)C2)nn1` (single isomer, unassigned; ent-2) [enantiomer of Example 132, 1-(cis-3-fluorocyclopentyl)-2-{[4-(methoxymethyl)-1H-1,2,3-triazol-1-yl]methyl}-1H-imidazo[4,5-c]quinoline-8-carbonitrile, ENT-2], the half-maximal inhibitory concentration (IC50) in assay [1] (100 nM LRRKtide, 1000 mM ATP (so in the source), 30 minutes at room temperature, read-out: LRRK2, Format 2 G2019S mutant IC50) amounted to 34.5 nM; in assay [2] (100 nM LRRKtide, 1000 mM ATP (so in the source), 30 minutes at room temperature), 26.8 nM.
Regarding `Cc1cn(Cc2nc3cnc4ccc(C#N)cc4c3n2C2CCC(F)C2)nn1` (single isomer, unassigned; ent-1) [Example C73, 1-(cis-3-fluorocyclopentyl)-2-[(4-methyl-1H-1,2,3-triazol-1-yl)methyl]-1H-imidazo[4,5-c]quinoline-8-carbonitrile, ENT-1], the IC50 is 26.1 nM in assay [1] (setting [3]) and 20.4 nM in assay [2] (setting [4]).
Taken in the same sequence, the figures for `Cc1cc(Cc2nc3cnc4ccc(C#N)cc4c3n2C2CCN(C)C2)no1` (stereo not shown) [Example 217, 2-[(5-methyl-1,2-oxazol-3-yl)methyl]-1-(1-methylpyrrolidin-3-yl)-1H-imidazo[4,5-c]quinoline-8-carbonitrile, formate salt] were 11.1 nM and 5.43 nM.
On to `N#Cc1ccc2ncc3nc(Cc4cscn4)n([C@@H]4CC[C@H](F)C4)c3c2c1` (single isomer, unassigned; ent-1) [Example 203, 1-(cis-3-fluorocyclopentyl)-2-(1,3-thiazol-4-ylmethyl)-1H-imidazo[4,5-c]quinoline-8-carbonitrile, ENT-1], for which the IC50 came out at 16.3 nM in assay [1] (setting [3]) and 12.2 nM in assay [2] (setting [4]).
`CC1(C)CC(n2c(Cc3cc(C(F)(F)F)on3)nc3cnc4ccc(C#N)cc4c32)CCO1` (single isomer, unassigned; ent-1) [Example 176, 1-(2,2-dimethyltetrahydro-2H-pyran-4-yl)-2-{[5-(trifluoromethyl)-1,2-oxazol-3-yl]methyl}-1H-imidazo[4,5-c]quinoline-8-carbonitrile, ENT-1]: the IC50 was 12.7 nM in assay [1] (setting [3]) and 13 nM in assay [2] (setting [4]).
In the case of `Cc1cnn(Cc2nc3cnc4ccc(C#N)cc4c3n2[C@H]2CCN(C)C2)c1` [Example 190, 2-[(4-methyl-1H-pyrazol-1-yl)methyl]-1-[(3S)-1-methylpyrrolidin-3-yl]-1H-imidazo[4,5-c]quinoline-8-carbonitrile], the IC50 in assay [1] (setting [3]) amounted to 26.2 nM; in assay [2] (setting [4]), 26.6 nM.
Turning to `Cc1cc(Cc2nc3cnc4ccc(C#N)cc4c3n2C2CCC(F)(F)C2)no1` (stereo not shown) [Example 246, 1-(3,3-difluorocyclopentyl)-2-[(5-methyl-1,2-oxazol-3-yl)methyl]-1H-imidazo[4,5-c]quinoline-8-carbonitrile, formate salt], the IC50 was found to be 86.5 nM in assay [1] (setting [3]) and 65 nM in assay [2] (setting [4]).
`CO[C@H]1CC[C@H](n2c(Cc3cc(C)on3)nc3cnc4ccc(C#N)cc4c32)CC1` [Example 219, 1-(trans-4-methoxycyclohexyl)-2-[(5-methyl-1,2-oxazol-3-yl)methyl]-1H-imidazo[4,5-c]quinoline-8-carbonitrile, formate salt]: the IC50 in assay [1] (setting [3]) was found to be 126 nM; in assay [2] (setting [4]), 246 nM.
Consider `C[C@@H]1C[C@H](n2c(Cc3ccn(C)n3)nc3cnc4ccc(Cl)cc4c32)CCO1` [Example 163, 8-chloro-2-[(1-methyl-1H-pyrazol-3-yl)methyl]-1-[(2R,4R)-2-methyltetrahydro-2H-pyran-4-yl]-1H-imidazo[4,5-c]quinoline], for which the IC50 is 7.25 nM in assay [1] (setting [3]) and 7.01 nM in assay [2] (setting [4]).
Consider `Cc1cn(Cc2nc3cnc4ccc(Cl)cc4c3n2C2CCOC(C)(C)C2)nn1` (stereo not shown) [Example 148, 8-chloro-1-(2,2-dimethyltetrahydro-2H-pyran-4-yl)-2-[(4-methyl-1H-1,2,3-triazol-1-yl)methyl]-1H-imidazo[4,5-c]quinoline, formate salt], for which the values for the IC50 in assay [1] (setting [3]) and in assay [2] (setting [4]) were 13.6 nM and 12.6 nM, respectively.
Regarding `Cc1cnc(Cc2nc3cnc4ccc(C(F)(F)F)cc4c3n2[C@@H]2CCO[C@H](C)C2)cn1` [Example 141, 2-[(5-methylpyrazin-2-yl)methyl]-1-[(2R,4R)-2-methyltetrahydro-2H-pyran-4-yl]-8-(trifluoromethyl)-1H-imidazo[4,5-c]quinoline], the IC50 in assay [1] (setting [3]) is 1.38 nM; in assay [2] (setting [4]), 2.07 nM.
For the compound `Cc1cnn(Cc2nc3cnc4ccc(Cl)cc4c3n2[C@@H]2CCO[C@H](C)C2)c1` [Example 212, 8-chloro-2-[(4-methyl-1H-pyrazol-1-yl)methyl]-1-[(2R,4R)-2-methyltetrahydro-2H-pyran-4-yl]-1H-imidazo[4,5-c]quinoline], the IC50 was found to be 8.15 nM in assay [1] (setting [3]) and 8.47 nM in assay [2] (setting [4]).
Consider `Cc1cnn(Cc2nc3cnc4ccc(C#N)cc4c3n2[C@H]2CC[C@@H](F)C2)c1` (single isomer, unassigned) [Example 94, 1-[cis-3-Fluorocyclopentyl]-2-[(4-methyl-1H-pyrazol-1-yl)methyl]-1H-imidazo[4,5-c]quinoline-8-carbonitrile], for which the IC50 in assay [1] (setting [3]) was found to be 6.01 nM; in assay [2] (setting [4]), 6.33 nM.
With `COc1cnn(Cc2nc3cnc4ccc(C#N)cc4c3n2CC(C)(F)F)c1` [Example 210, 1-(2,2-difluoropropyl)-2-[(4-methoxy-1H-pyrazol-1-yl)methyl]-1H-imidazo[4,5-c]quinoline-8-carbonitrile], the IC50 in assay [1] (setting [3]) was 7.63 nM; in assay [2] (setting [4]), 7.04 nM.
In the same order, the values of `COCc1cn(Cc2nc3cnc4ccc(C#N)cc4c3n2[C@@H]2CC[C@H](F)C2)nn1` (single isomer, unassigned; ent-1) [Example 132, 1-(cis-3-fluorocyclopentyl)-2-{[4-(methoxymethyl)-1H-1,2,3-triazol-1-yl]methyl}-1H-imidazo[4,5-c]quinoline-8-carbonitrile, ENT-1] are 10.8 nM and 7.49 nM.
